Laboratory results taken from patent publication US20080207705A1, “Heteroaryl-Imidazole Derivatives as Cannabinoid CB1 Receptor Antagonists” (Green Cross Corporation, priority 2007, published 2008).

Target: T1, rat CB-1 receptor (Rattus norvegicus, UniProt P20272)
T1 construct: The tissue obtained from the brain of SD rats was homogenized; from tissue; host or cells: brain of SD rats (membrane pellet of homogenate)
Test: rat CB-1 receptor binding protocol with [3H]CP-55940
Conditions: not given

T1 sequence (P20272 whole entry): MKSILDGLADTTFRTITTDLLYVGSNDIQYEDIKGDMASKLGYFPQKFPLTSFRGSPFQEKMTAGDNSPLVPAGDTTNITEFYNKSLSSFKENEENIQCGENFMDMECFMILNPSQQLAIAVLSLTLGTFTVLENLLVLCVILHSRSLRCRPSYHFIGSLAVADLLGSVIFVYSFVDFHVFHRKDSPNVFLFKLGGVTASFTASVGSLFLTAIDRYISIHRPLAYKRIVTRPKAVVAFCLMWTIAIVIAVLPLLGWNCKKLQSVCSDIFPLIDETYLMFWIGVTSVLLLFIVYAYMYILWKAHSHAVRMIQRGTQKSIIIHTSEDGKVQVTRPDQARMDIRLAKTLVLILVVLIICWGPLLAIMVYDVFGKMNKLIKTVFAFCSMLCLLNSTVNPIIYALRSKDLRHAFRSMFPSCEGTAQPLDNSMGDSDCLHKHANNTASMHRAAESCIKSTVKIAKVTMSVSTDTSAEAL

In order of falling IC50:
1. Cc1c(-c2nnc(C3CCCCC3)o2)nc(-c2ccc(Cl)cc2Cl)n1-c1ccc(Br)cc1 [Example 19, 2-(1-(4-Bromophenyl)-2-(2,4-dichlorophenyl)-5-methyl-1H-imidazol-4-yl)-5-cyclohexyl-1,3,4-oxadiazole]  70 nM
2. Cc1c(-c2nnc(C3CCCC3)o2)nc(-c2ccc(Cl)cc2Cl)n1-c1ccc(Cl)cc1 [Example 3, 2-(1-(4-Chlorophenyl)-2-(2,4-dichlorophenyl)-5-methyl-1H-imidazol-4-yl)-5-cyclopentyl-1,3,4-oxadiazole]  35.3 nM
3. Cc1c(-c2nnc(C(C)c3ccccc3)o2)nc(-c2ccc(Cl)cc2Cl)n1-c1ccc(Cl)cc1 (stereo not shown) [Example 11, 2-(1-(4-Chlorophenyl)-2-(2,4-dichlorophenyl)-5-methyl-1H-imidazol-4-yl)-5-(1-phenylethyl)-1,3,4-oxadiazole]  31.4 nM
4. Cc1c(-c2nnc(C3CCC3)o2)nc(-c2ccc(Cl)cc2Cl)n1-c1ccc(Br)cc1 [Example 22, 2-(1-(4-Bromophenyl)-2-(2,4-dichlorophenyl)-5-methyl-1H-imidazol-4-yl)-5-cyclobutyl-1,3,4-oxadiazole]  29.3 nM
5. Cc1c(-c2nnc(C(C)C)o2)nc(-c2ccc(Cl)cc2Cl)n1-c1ccc(Cl)cc1 [Example 9, 2-(1-(4-Chlorophenyl)-2-(2,4-dichlorophenyl)-5-methyl-1H-imidazol-4-yl)-5-isopropyl-1,3,4-oxadiazole]  25.8 nM
6. CC(C)c1c(-c2nnc(C(C)(C)C)o2)nc(-c2ccc(Cl)cc2Cl)n1-c1ccc(Br)cc1 [Example 25, 2-(1-(4-Bromophenyl)-2-(2,4-dichlorophenyl)-5-isopropyl-1H-imidazol-4-yl)-5-tert-butyl-1,3,4-oxadiazole]  21.2 nM
7. CCc1c(-c2nnc(C(C)(C)C)o2)nc(-c2ccc(Cl)cc2Cl)n1-c1ccc(Cl)cc1 [Example 15, 2-tert-butyl-5-(1-(4-chlorophenyl)-2-(2,4-dichlorophenyl)-5-ethyl-1H-imidazol-4-yl)-1,3,4-oxadiazole]  18.1 nM
8. CCCC(C)c1nnc(-c2nc(-c3ccc(Cl)cc3Cl)n(-c3ccc(Cl)cc3)c2C)o1 (stereo not shown) [Example 7, 2-(1-(4-Chlorophenyl)-2-(2,4-dichlorophenyl)-5-methyl-1H-imidazol-4-yl)-5-(pentan-2-yl)-1,3,4-oxadiazole]  14.2 nM
9. CCc1c(-c2nnc(C3(c4ccccc4)CC3)o2)nc(-c2ccc(Cl)cc2Cl)n1-c1ccc(Br)cc1 [Example 27, 2-(1-(4-Bromophenyl)-2-(2,4-dichlorophenyl)-5-ethyl-1H-imidazol-4-yl)-5-(1-phenylcyclopropyl)-1,3,4-oxadiazole]  9.14 nM

Same assay, conditions: [3H]CP-55940, brain tissue of SD rats, 30 °C for 60 min; read-out: IC50

In order of rising IC50:
1. CCc1c(-c2nnc(C(C)(C)C)o2)nc(-c2ccc(Cl)cc2Cl)n1-c1ccc(Br)cc1 [Example 21, 2-(1-(4-Bromophenyl)-2-(2,4-dichlorophenyl)-5-ethyl-1H-imidazol-4-yl)-5-tert-butyl-1,3,4-oxadiazole]  3.15 nM
2. Cc1c(-c2nnc(C(C)(C)C)o2)nc(-c2ccc(Cl)cc2Cl)n1-c1ccc(Br)cc1 [Example 20, 2-(1-(4-Bromophenyl)-2-(2,4-dichlorophenyl)-5-methyl-1H-imidazol-4-yl)-5-tert-butyl-1,3,4-oxadiazole]  5.81 nM
3. CCCc1c(-c2nnc(C3(c4ccc(Cl)cc4)CCC3)o2)nc(-c2ccc(Cl)cc2Cl)n1-c1ccc(Br)cc1 [Example 34, 2-(1-(4-Bromophenyl)-2-(2,4-dichlorophenyl)-5-propyl-1H-imidazol-4-yl)-5-(1-(4-chlorophenyl)cyclobutyl)-1,3,4-oxadiazole]  9.05 nM
4. CC(C)c1c(-c2nnc(C3(c4ccccc4)CC3)o2)nc(-c2ccc(Cl)cc2Cl)n1-c1ccc(Br)cc1 [Example 26, 2-(1-(4-Bromophenyl)-2-(2,4-dichlorophenyl)-5-isopropyl-1H-imidazol-4-yl)-5-(1-phenylcyclopropyl)-1,3,4-oxadiazole]  10.3 nM
5. CCCCC(C)c1nnc(-c2nc(-c3ccc(Cl)cc3Cl)n(-c3ccc(Cl)cc3)c2CC)o1 (stereo not shown) [Example 16, 2-(1-(4-Chlorophenyl)-2-(2,4-dichlorophenyl)-5-ethyl-1H-imidazol-4-yl)-5-(hexan-2-yl)-1,3,4-oxadiazole]  11.2 nM
6. CCCC(C)c1nnc(-c2nc(-c3ccc(Cl)cc3Cl)n(-c3ccc(Cl)cc3)c2CC)o1 (stereo not shown) [Example 17, 2-(1-(4-Chlorophenyl)-2-(2,4-dichlorophenyl)-5-ethyl-1H-imidazol-4-yl)-5-(pentan-2-yl)-1,3,4-oxadiazole]  11.5 nM
7. CCCCC(C)c1nnc(-c2nc(-c3ccc(Cl)cc3Cl)n(-c3ccc(Cl)cc3)c2C)o1 (stereo not shown) [Example 6, 2-(1-(4-Chlorophenyl)-2-(2,4-dichlorophenyl)-5-methyl-1H-imidazol-4-yl)-5-(hexan-2-yl)-1,3,4-oxadiazole]  12.9 nM
8. Cc1c(-c2nnc(C(C)(C)C)o2)nc(-c2ccc(Cl)cc2Cl)n1-c1ccc(Cl)cc1 [Example 1, 2-tert-Butyl-5-(1-(4-chlorophenyl)-2-(2,4-dichlorophenyl)-5-methyl-1H-imidazol-4-yl)-1,3,4-oxadiazole]  13.2 nM
9. CC(C)c1c(-c2nnc(C3(c4ccccc4)CC3)o2)nc(-c2ccc(Cl)cc2Cl)n1-c1ccc(Cl)cc1 [Example 28, 2-(1-(4-Chlorophenyl)-2-(2,4-dichlorophenyl)-5-isopropyl-1H-imidazol-4-yl)-5-(1-phenylcyclopropyl)-1,3,4-oxadiazole]  15.5 nM
10. CCc1c(-c2nnc(C(C)CC)o2)nc(-c2ccc(Cl)cc2Cl)n1-c1ccc(Cl)cc1 (stereo not shown) [Example 18, 2-sec-Butyl-5-(1-(4-chlorophenyl)-2-(2,4-dichlorophenyl)-5-ethyl-1H-imidazol-4-yl)-1,3,4-oxadiazole]  17.9 nM
11. CCCc1c(-c2nnc(C3(c4ccc(Cl)cc4)CC3)o2)nc(-c2ccc(Cl)cc2Cl)n1-c1ccc(Br)cc1 [Example 33, 2-(1-(4-Bromophenyl)-2-(2,4-dichlorophenyl)-5-propyl-1H-imidazol-4-yl)-5-(1-(4-chlorophenyl)cyclopropyl)-1,3,4-oxadiazole]  19.2 nM
12. CCC(CC)c1nnc(-c2nc(-c3ccc(Cl)cc3Cl)n(-c3ccc(Cl)cc3)c2C)o1 [Example 10, 2-(1-(4-Chlorophenyl)-2-(2,4-dichlorophenyl)-5-methyl-1H-imidazol-4-yl)-5-(pentan-3-yl)-1,3,4-oxadiazole]  22.3 nM
13. CCc1c(-c2nnc(C3CCC3)o2)nc(-c2ccc(Cl)cc2Cl)n1-c1ccc(Br)cc1 [Example 23, 2-(1-(4-Bromophenyl)-2-(2,4-dichlorophenyl)-5-ethyl-1H-imidazol-4-yl)-5-cyclobutyl-1,3,4-oxadiazole]  24.1 nM
14. CCc1c(-c2nnc(C3CCCC3)o2)nc(-c2ccc(Cl)cc2Cl)n1-c1ccc(Cl)cc1 [Example 13, 2-(1-(4-Chlorophenyl)-2-(2,4-dichlorophenyl)-5-ethyl-1H-imidazol-4-yl)-5-cyclopentyl-1,3,4-oxadiazole]  25.8 nM
15. Cc1c(-c2nnc(C3CCCCCC3)o2)nc(-c2ccc(Cl)cc2Cl)n1-c1ccc(Cl)cc1 [Example 5, 2-(1-(4-Chlorophenyl)-2-(2,4-dichlorophenyl)-5-methyl-1H-imidazol-4-yl)-5-cycloheptyl-1,3,4-oxadiazole]  27.6 nM
16. CCc1c(-c2nnc(C3CCC3)o2)nc(-c2ccc(Cl)cc2Cl)n1-c1ccc(Cl)cc1 [Example 14, 2-(1-(4-Chlorophenyl)-2-(2,4-dichlorophenyl)-5-ethyl-1H-imidazol-4-yl)-5-cyclobutyl-1,3,4-oxadiazole]  34.1 nM
17. Cc1c(-c2nnc(C3CCC3)o2)nc(-c2ccc(Cl)cc2Cl)n1-c1ccc(Cl)cc1 [Example 4, 2-(1-(4-Chlorophenyl)-2-(2,4-dichlorophenyl)-5-methyl-1H-imidazol-4-yl)-5-cyclobutyl-1,3,4-oxadiazole]  38.7 nM
18. CCC(C)c1nnc(-c2nc(-c3ccc(Cl)cc3Cl)n(-c3ccc(Cl)cc3)c2C)o1 (stereo not shown) [Example 8, 2-sec-Butyl-5-(1-(4-chlorophenyl)-2-(2,4-dichlorophenyl)-5-methyl-1H-imidazol-4-yl)-1,3,4-oxadiazole]  39.4 nM
19. CCCc1c(-c2nnc(C3(c4ccccc4)CC3)o2)nc(-c2ccc(Cl)cc2Cl)n1-c1ccc(Br)cc1 [Example 31, 2-(1-(4-Bromophenyl)-2-(2,4-dichlorophenyl)-5-propyl-1H-imidazol-4-yl)-5-(1-phenylcyclopropyl)-1,3,4-oxadiazole]  46.1 nM
20. CCc1c(-c2nnc(C3CCCCC3)o2)nc(-c2ccc(Cl)cc2Cl)n1-c1ccc(Cl)cc1 [Example 12, 2-(1-(4-Chlorophenyl)-2-(2,4-dichlorophenyl)-5-ethyl-1H-imidazol-4-yl)-5-cyclohexyl-1,3,4-oxadiazole]  48.4 nM
21. CCCc1c(-c2nnc(C3CCC3)o2)nc(-c2ccc(Cl)cc2Cl)n1-c1ccc(Br)cc1 [Example 32, 2-(1-(4-Bromophenyl)-2-(2,4-dichlorophenyl)-5-propyl-1H-imidazol-4-yl)-5-cyclobutyl-1,3,4-oxadiazole]  68.9 nM
22. CCCc1c(-c2nnc(C(C)(C)C)o2)nc(-c2ccc(Cl)cc2Cl)n1-c1ccc(Br)cc1 [Example 29, 2-(1-(4-Bromophenyl)-2-(2,4-dichlorophenyl)-5-propyl-1H-imidazol-4-yl)-5-tert-butyl-1,3,4-oxadiazole]  71.5 nM
23. CC(C)(C)c1nnc(-c2nc(-c3ccc(Cl)cc3Cl)n(-c3ccc(Cl)cc3)c2C2CC2)o1 [Example 24, 2-tert-Butyl-5-(1-(4-chlorophenyl)-5-cyclopropyl-2-(2,4-dichlorophenyl)-1H-imidazol-4-yl)-1,3,4-oxadiazole]  79.9 nM
24. Cc1c(-c2nnc(C3CCCCC3)o2)nc(-c2ccc(Cl)cc2Cl)n1-c1ccc(Cl)cc1 [Example 2, 2-(1-(4-Chlorophenyl)-2-(2,4-dichlorophenyl)-5-methyl-1H-imidazol-4-yl)-5-cyclohexyl-1,3,4-oxadiazole]  115 nM
25. CCCc1c(-c2nnc(C3CCCCC3)o2)nc(-c2ccc(Cl)cc2Cl)n1-c1ccc(Br)cc1 [Example 30, 2-(1-(4-Bromophenyl)-2-(2,4-dichlorophenyl)-5-propyl-1H-imidazol-4-yl)-5-cyclohexyl-1,3,4-oxadiazole]  392 nM
